# Source: US8455523B2, “Compositions and methods for treating hyperlipidemias” (The Research Foundation of State University of New York, priority 2010, dated 2013)
# How the values were obtained:
# Reversa mice = details: for plasma cholesterol / plasma triglycerides: MTP deficient (plpC) Reversa mice, oral 30 days
# Protocol: FIG. 11. Reversa animals were injected with plpC every other day for one week. Lovastatin, T-090317 and WY14643 were administered by oral gavage everyday for 30 days after the first injection. Animals were sacrificed on day 30 and plasma and livers were harvested and analyzed. * represent comparison to PBS injected animals and # represent comparisons to plpC control.
# Animals: Mttp^tm2Sgy LdIr^tm1Her Apob^tm2Sgy Tg(Mx1-cre)1Cgn/J mice (Reversa) (stock number 004192) were obtained from Jackson Laboratories. Male reversa mice were used to study the effect of mttp gene deletion on plasma and tissue lipids. These animals are transgenic for apolipoprotein B, LDLR^−/− and floxed at exon 1 of the mttp locus. In addition, these mice express cre recombinase under the control of the Mx1 promoter, which is induced after intraperitoneal injection of polyinosinic polycytidylic ribonucleic acid (plpC—Sigma) in the liver, spleen and intestine. Injection of plpC activates the cre recombinase and deletes the mttp gene in the liver and intestines. Reversa mice were injected with either PBS or plpC. Mice injected with plpC were orally gavaged with DMSO (Sigma-Aldrich D8418), DMSO+Lovastatin (50 mg/kg/day) (Calbiochem 438186), DMSO+T0901317 (50 mg/kg/day) (Calbiochem 575310), or DMSO+WY14643 (10 mg/kg/day) (Calbiochem 681725). Mice injected with plpC were also injected with either PBS or Ω-3 fatty acids (SUNY Downstate Medical Center). All animals were given supplemental treatments for 30 days.
# All animals were kept in 07:00-19:00 h lighting schedule. […] Food was withdrawn 16 h before the sacrifice of the mice. On the day of the experiment, mice were anesthetized and blood was collected from the heart. Liver was collected, washed in ice-cold PBS, cut into small pieces and used for lipid extraction, histological staining, to measure different protein activities/quantities and for mRNA analysis. Lipids were extracted from the tissue homogenates following the Bligh and Dyer method. Triglyceride (Infinity TM Triglyceride, TR22421) and total cholesterol (Infinity TM Cholesterol, TR13421) levels in the tissues were determined using commercial kits (Thermo Scientific). Free cholesterol and free fatty acid levels were measured using kits from Wako Chemicals (Germany). Esterified cholesterol was calculated by subtracting the free cholesterol from the total cholesterol.
# To determine whether accumulation of hepatic triglyceride and free cholesterol is related to increases in plasma AST/ALT, we sought to reduce these lipids using different chemical compounds of known physiologic effects. Mice injected with plpC were orally gavaged with DMSO, DMSO+Lovastatin (50 mg/kg/day), DMSO+T0901317 (50 mg/kg/day), or DMSO+WY14643 (10 mg/kg/day). Lovastatin (Lova), an HMG-CoA reductase (HMGR) inhibitor, and T0901317 (T0), an LXR agonist, are expected to decrease hepatic free cholesterol by inhibiting endogenous cholesterol synthesis and increasing cholesterol efflux, respectively. WY14643 (WY), a PPARα agonist, increases β-oxidation of fatty acids and lowers hepatic triglycerides.
# To evaluate the efficacy of Ω-3 FA in reducing hepatic triglyceride, plpC injected mice were treated with intraperitoneal injection of Ω-3 FA (3 mg/kg/2 day) or Ω-3 FA and Lova.
# [1] = tested on: hyperlipidemic bonnet macaques; assay: MTP inhibitor with or without pioglitazone or lovastatin in western diet fed bonnet macaques; type: in vivo, bonnet macaque monkeys; details: for plasma cholesterol: then MTP inhibitor one month ± Pioglitazone or Lovastatin; for Hepatic cholesterol, total and free: biopsies
# Protocol: FIG. 14. Bonnet Macaque monkeys fed ad libitum WD diet for 40 days and were administered MTPi, Lovastatin, (Lovas) or Pioglitazone (Pio) everyday for one month. A-D* represent comparisons to the MTPi alone group. E-I* represent comparisons between baseline and post biopsies.
# Eleven (11) Male bonnet macaque monkeys were fed western diet for 40 days and treated with MTP inhibitor (BMS 2122122-01) with or without either Pioglitazone or Lovastatin for one month. Plasma samples were obtained at Day 0, 20, 40, 47, 54, 61 and 68 days. Liver biopsies were obtained on Day 40 and Day 68. Biopsies were conducted over two days; 2 animals from each group were biopsied per day.
# In order to ascertain if the effects seen were a species-specific effect, we studied the treatment of MTP inhibitors either alone or in conjunction with Pioglitazone or Lovastatin in hyperlipidemic bonnet macaques. These animals were fed ad libitum with a WD for 40 days and then subsequently treated with MTP inhibitors for one month. […] These studies indicate that western diet increases plasma cholesterol and that these increases can be abrogated by treatment with an MTP inhibitor.
# [2] = plpC-injected Reversa mice, Lova 50, T0 50, WY 10 mg/kg/day oral or Ω-3 FA 3 mg/kg/2 day ip, vs plpC control
Compound,plasma cholesterol (Reversa mice),plasma triglycerides (Reversa mice),hepatic free and total cholesterol (Reversa mice; [2]),hepatic triglyceride (Reversa mice; [2]),plasma cholesterol ([1]; WD 40 days),"Hepatic cholesterol, total and free ([1]; co-drugs with MTP inhibitor)","plasma AST/ALT levels vs baseline and day 40 ([1]; WD 40 days, then treatment one month)",Hepatic triglycerides (biopsies day 40 vs day 68) ([1]; co-drugs with MTP inhibitor)
CC[C@H](C)C(=O)O[C@H]1C[C@@H](C)C=C2C=C[C@H](C)[C@H](CC[C@@H]3C[C@@H](O)CC(=O)O3)[C@H]21 [lovastatin],significantly reduced,no effect,significantly reduced,no effect,no further significant effect,suppressed,,
Cc1cccc(Nc2cc(Cl)nc(SCC(=O)O)n2)c1C [WY14643],no effect,no effect,no effect,,,,,
"CCc1ccc(CCOc2ccc(CC3SC(=O)NC3=O)cc2)nc1 (racemic) [pioglitazone, (RS)-5-(4-[2-(5-ethylpyridin-2-yl)ethoxy]benzyl)thiazolidine-2,4-dione]",,,,,no further significant effect,suppressed,did not show elevated,no significant difference
